# Data from patent US9856220B2 (AbbVie Deutschland GmbH & Co. KG, priority 2011, dated 2018).
# Columns and labels:
# [1] = Determination of the microsomal half-life / microsomal clearance, rat liver microsomes; format: in vitro ADME; conditions: 0.5 μM test substance, 0.25 mg of microsomal protein/ml, pH 7.4, 37° C.
# Procedure: (§1) b) Determination of the Microsomal Half-Life:
# (§2) The metabolic stability of the compounds of the invention was determined in the following assay.
# (§3) The test substances were incubated in a concentration of 0.5 μM as follows:
# (§4) 0.5 μM test substance are preincubated together with liver microsomes from different species (from rat, human or other species) (0.25 mg of microsomal protein/ml) in 0.05 M potassium phosphate buffer of pH 7.4 in microtiter plates at 37° C. for 5 min. The reaction is started by adding NADPH (1 mg/mL). After 0, 5, 10, 15, 20 and 30 min, 50 μl aliquots are removed, and the reaction is immediately stopped and cooled with the same volume of acetonitrile. The samples are frozen until analyzed. The remaining concentration of undegraded test substance is determined by MSMS. The half-life (T½) is determined from the gradient of the signal of test substance/unit time plot, it being possible to calculate the half-life of the test substance, assuming first order kinetics, from the decrease in the concentration of the compound with time. The microsomal clearance (mCl) is calculated from mCl=ln 2/T½/(content of microsomal protein in mg/ml)×1000 [ml/min/mg]
# PDE10A = PDE10A (Homo sapiens (Human), UniProt Q9Y233); assay: Measurement of PDE activity (recombinant PDE, cAMP HTRF); format: biochemical; conditions: 20 nM cyclic nucleotide substrate, 60 minutes at 29 C
# Chain of PDE10A (Q9Y233 whole entry, species assumed): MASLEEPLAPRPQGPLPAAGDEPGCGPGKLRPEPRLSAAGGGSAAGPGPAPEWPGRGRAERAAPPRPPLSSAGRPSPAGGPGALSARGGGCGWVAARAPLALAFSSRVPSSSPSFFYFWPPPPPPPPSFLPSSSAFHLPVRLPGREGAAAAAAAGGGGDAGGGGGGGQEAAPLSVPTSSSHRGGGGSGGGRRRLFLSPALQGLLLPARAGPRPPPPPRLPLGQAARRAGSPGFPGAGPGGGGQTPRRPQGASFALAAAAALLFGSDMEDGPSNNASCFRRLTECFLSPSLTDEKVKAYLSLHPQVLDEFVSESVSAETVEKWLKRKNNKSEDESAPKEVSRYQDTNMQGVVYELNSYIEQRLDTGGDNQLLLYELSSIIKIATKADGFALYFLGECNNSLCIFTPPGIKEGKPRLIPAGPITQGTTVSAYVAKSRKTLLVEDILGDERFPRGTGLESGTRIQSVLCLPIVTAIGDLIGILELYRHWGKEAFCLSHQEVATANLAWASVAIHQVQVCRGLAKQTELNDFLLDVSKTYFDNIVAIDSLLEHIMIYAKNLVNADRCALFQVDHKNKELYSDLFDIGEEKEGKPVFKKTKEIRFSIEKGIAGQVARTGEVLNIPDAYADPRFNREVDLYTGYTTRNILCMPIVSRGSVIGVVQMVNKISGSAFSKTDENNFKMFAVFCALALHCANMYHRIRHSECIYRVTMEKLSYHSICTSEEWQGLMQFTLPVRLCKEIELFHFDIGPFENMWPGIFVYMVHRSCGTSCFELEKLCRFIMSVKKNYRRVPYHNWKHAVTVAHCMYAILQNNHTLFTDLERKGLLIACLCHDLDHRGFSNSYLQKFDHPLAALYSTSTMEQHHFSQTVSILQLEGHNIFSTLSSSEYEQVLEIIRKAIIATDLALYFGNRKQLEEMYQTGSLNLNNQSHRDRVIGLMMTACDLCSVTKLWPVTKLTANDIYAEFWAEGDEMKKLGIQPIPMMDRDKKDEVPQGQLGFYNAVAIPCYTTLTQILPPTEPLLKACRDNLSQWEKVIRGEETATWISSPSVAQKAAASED
# Procedure, shortened: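 Recombinant human PDE10A in 20 mM Tris-HCl pH 7.5, 10 mM MgCl2, 0.1% BSA with 20 nM cyclic nucleotide substrate; reaction 60 min at 29 C after compound preincubation with enzyme. Residual cAMP detected by HTRF (cAMP-d2/anti-cAMP cryptate); IC50 from inhibitor concentration versus PDE activity.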
# [2] = Determination of the microsomal half-life / microsomal clearance, human liver microsomes; format: in vitro ADME; conditions: 0.5 μM test substance, 0.25 mg of microsomal protein/ml, pH 7.4, 37° C.
# Procedure: as §1, §2, §3, §4
Rat mCl [1],IC50 (PDE10A) [nM],Human mCl [2],SMILES
++ (<100 μl min^−1 mg^−1),200 to 500,++ (<100 μl min^−1 mg^−1),"CCC(CC)n1cc(C(=O)NC2CCc3ncccc32)c2cc(OC)c(OC)cc2c1=O (single isomer, unassigned; (+)) [Example 199, (+)-2-(1-Ethyl-propyl)-6,7-dimethoxy-1-oxo-1,2-dihydro-isoquinoline-4-carboxylic acid (6,7-dihydro-5H-[1]pyrindin-5-yl)-amide]"
++ (<100 μl min^−1 mg^−1),–,+ (100-220 μl min^−1 mg^−1),"CCn1cc(C(=O)NC2CCc3sccc32)c2cc(OC)c(OC)cc2c1=O (single isomer, unassigned; (+)) [Example 204, (+)-2-Ethyl-6,7-dimethoxy-1-oxo-1,2-dihydro-isoquinoline-4-carboxylic acid (5,6-dihydro-4H-cyclopenta[b]thiophen-4-yl)-amide]"
++ (<100 μl min^−1 mg^−1),200 to 500,++ (<100 μl min^−1 mg^−1),"CCC(CC)n1cc(C(=O)NC2CCc3ncccc32)c2cc(OC)c(OC)cc2c1=O (single isomer, unassigned; (-)) [Example 200, (−)-2-(1-Ethyl-propyl)-6,7-dimethoxy-1-oxo-1,2-dihydro-isoquinoline-4-carboxylic acid (6,7-dihydro-5H-[1]pyrindin-5-yl)-amide]"
++ (<100 μl min^−1 mg^−1),200 to 500,++ (<100 μl min^−1 mg^−1),"CCn1cc(C(=O)NC2CCc3sccc32)c2cc(OC)c(OC)cc2c1=O (single isomer, unassigned; (-)) [Example 205, (−)-2-Ethyl-6,7-dimethoxy-1-oxo-1,2-dihydro-isoquinoline-4-carboxylic acid (5,6-dihydro-4H-cyclopenta[b]thiophen-4-yl)-amide]"
++ (<100 μl min^−1 mg^−1),100 to 200,++ (<100 μl min^−1 mg^−1),"CCn1cc(C(=O)NC2CCc3ccccc32)c2cc(OC)c(OC)cc2c1=O (stereo not shown) [Example 40, 2-Ethyl-6,7-dimethoxy-1-oxo-1,2-dihydro-isoquinoline-4-carboxylic acid indan-1-ylamide]"
∘ (>220 μl min^−1 mg^−1),< 100,+ (100-220 μl min^−1 mg^−1),"CCCCNC(=O)c1cn(CC)c(=O)c2cc(OC)c(OCCc3ccc4ccccc4n3)cc12 [Example 136, 2-Ethyl-7-methoxy-1-oxo-6-(2-quinolin-2-yl-ethoxy)-1,2-dihydro-isoquinoline-4-carboxylic acid butylamide]"
++ (<100 μl min^−1 mg^−1),100 to 200,++ (<100 μl min^−1 mg^−1),"CCn1cc(C(=O)Nc2ccc(N3CCOCC3)cc2)c2cc(OC)c(OC)cc2c1=O [Example 141, 2-Ethyl-6,7-dimethoxy-N-(4-morpholinophenyl)-1-oxo-1,2-dihydroisoquinoline-4-carboxamide]"
++ (<100 μl min^−1 mg^−1),–,++ (<100 μl min^−1 mg^−1),"COc1cc2c(C(=O)NC3CCc4ccccc43)cn(C3CC3)c(=O)c2cc1OC (stereo not shown) [Example 196, 2-Cyclopropyl-6,7-dimethoxy-1-oxo-1,2-dihydro-isoquinoline-4-carboxylic acid indan-1-ylamide]"
++ (<100 μl min^−1 mg^−1),–,++ (<100 μl min^−1 mg^−1),"CCC(CC)n1cc(C(=O)NCc2cscn2)c2cc(OC)c(OC)cc2c1=O [Example 203, 2-(1-Ethyl-propyl)-6,7-dimethoxy-1-oxo-1,2-dihydro-isoquinoline-4-carboxylic acid (thiazol-4-ylmethyl)-amide]"
–,200 to 500,–,"CCn1cc(C(=O)NCc2ccc(C)cc2OC(C)C)c2cc(OC)c(OC)cc2c1=O [Example 302, 2-Ethyl-N-(2-isopropoxy-4-methylbenzyl)-6,7-dimethoxy-1-oxo-1,2-dihydroisoquinoline-4-carboxamide]"
–,200 to 500,–,"CCn1cc(C(=O)NCc2ccc(C)cc2OC2CCOC2)c2cc(OC)c(OC)cc2c1=O (stereo not shown) [Example 303, 2-Ethyl-6,7-dimethoxy-N-(4-methyl-2-(tetrahydrofuran-3-yloxy)benzyl)-1-oxo-1,2-dihydroisoquinoline-4-carboxamide]"
–,200 to 500,–,"CCn1cc(C(=O)NCc2ccc(C)cc2OCC2CCCO2)c2cc(OC)c(OC)cc2c1=O (stereo not shown) [Example 305, 2-Ethyl-6,7-dimethoxy-N-(4-methyl-2-((tetrahydrofuran-2-yl)methoxy)benzyl)-1-oxo-1,2-dihydroisoquinoline-4-carboxamide]"
–,200 to 500,–,"CCn1cc(C(=O)NCc2ccc(C)cc2OC)c2cc(OC)c(OC)cc2c1=O [Example 308, 2-Ethyl-6,7-dimethoxy-N-(2-methoxy-4-methylbenzyl)-1-oxo-1,2-dihydroisoquinoline-4-carboxamide]"
–,200 to 500,++ (<100 μl min^−1 mg^−1),"CCn1cc(C(=O)NCc2cscn2)c2cc(OC)c(OC)cc2c1=O [Example 309, 2-Ethyl-6,7-dimethoxy-1-oxo-N-(thiazol-4-ylmethyl)isoquinoline-4-carboxamide]"
++ (<100 μl min^−1 mg^−1),–,++ (<100 μl min^−1 mg^−1),"CCn1cc(C(=O)NCc2ccc(C(F)(F)F)cc2)c2cc(OC)c(OC)cc2c1=O [Example 310, 2-Ethyl-6,7-dimethoxy-1-oxo-N-[[4-(trifluoromethyl)phenyl]-methyl]isoquinoline-4-carboxamide]"
++ (<100 μl min^−1 mg^−1),–,+ (100-220 μl min^−1 mg^−1),"CCn1cc(C(=O)NCc2ccc(C(C)C)cc2)c2cc(OC)c(OC)cc2c1=O [Example 312, 2-Ethyl-N-[(4-isopropylphenyl)methyl]-6,7-dimethoxy-1-oxo-isoquinoline-4-carboxamide]"
++ (<100 μl min^−1 mg^−1),–,++ (<100 μl min^−1 mg^−1),"CCn1cc(C(=O)NCc2ccc(C(F)F)cc2)c2cc(OC)c(OC)cc2c1=O [Example 315, N-[[4-(Difluoromethyl)phenyl]methyl]-2-ethyl-6,7-dimethoxy-1-oxo-isoquinoline-4-carboxamide]"
–,< 100,–,"CCCCNC(=O)c1cn(CCc2ccc3ccccc3n2)c(=O)c2cc(OC)c(OC)cc12 [Example 322, N-Butyl-6,7-dimethoxy-1-oxo-2-[2-(2-quinolyl)ethyl]isoquinoline-4-carboxamide; 2,2,2-trifluoroacetic acid]"
–,200 to 500,–,"COc1cc2c(C(=O)NC3CCc4ccccc43)cn(CCc3ccc4ccccc4n3)c(=O)c2cc1OC (stereo not shown) [Example 323, N-Indan-1-yl-6,7-dimethoxy-1-oxo-2-[2-(2-quinolyl)ethyl]isoquinoline-4-carboxamide; 2,2,2-trifluoroacetic acid]"

SMILES,Rat mCl [1],IC50 (PDE10A) [nM],Human mCl [2]
"CCC(C)Oc1cc(C)ccc1CNC(=O)c1cn(CC)c(=O)c2cc(OC)c(OC)cc12 (stereo not shown) [Example 298, N-(2-sec-Butoxy-4-methylbenzyl)-2-ethyl-6,7-dimethoxy-1-oxo-1,2-dihydroisoquinoline-4-carboxamide]",–,200 to 500,–
"CCn1cc(C(=O)N[C@@H](C)c2ccc(C)cc2)c2cc(OC)c(OC)cc2c1=O [Example 311, 2-Ethyl-6,7-dimethoxy-1-oxo-N-[(1S)-1-(p-tolyl)ethyl]isoquinoline-4-carboxamide]",–,200 to 500,++ (<100 μl min^−1 mg^−1)
"CCn1cc(C(=O)N[C@H](C)c2ccc(C)cc2)c2cc(OC)c(OC)cc2c1=O [Example 314, 2-Ethyl-6,7-dimethoxy-1-oxo-N-[(1R)-1-(p-tolyl)ethyl]isoquinoline-4-carboxamide]",++ (<100 μl min^−1 mg^−1),–,++ (<100 μl min^−1 mg^−1)
